Experiments:
Format in all cases: functional
[1] = tested on: Radical scavenging activity; experiment: DPPH radical scavenging activity
[2] = tested on: Radical scavenging activity; experiment: ABTS radical scavenging activity
[3] = tested on: Radical scavenging activity; experiment: Superoxide radical scavenging activity

| IC50 [1] [µM] | IC50 [2] [µM] | IC50 [3] [µM] | Compound |
| --- | --- | --- | --- |
| 31.7 | 2.8 | 2.9 | O=C(O)/C=C/c1ccc(O)c(O)c1 [CAFFEIC ACID] |
| 3.4 | 0.8 | 2.3 | CC1=CC(=O)[C@H](c2c(O)cc(/C=C/c3ccc(O)c(O)c3)oc2=O)[C@@H](c2ccc(O)c(O)c2)O1 [DAVALLIALACTONE] |
| > 100 | 7.8 | > 100 | CC(=O)c1c(-c2ccc(O)c(O)c2)oc2cc(/C=C/c3ccc(O)c(O)c3)oc(=O)c12 [INOSCAVIN C] |
| 18.7 | 1.5 | 5.4 | COc1cc(/C=C/c2cc(O)c([C@H]3C(=O)C=C(C)O[C@@H]3c3ccc(O)c(O)c3)c(=O)o2)ccc1O [METHYLDAVALLIALACTONE] |
| > 100 | 12.3 | > 100 | COc1cc(/C=C/c2cc3oc(-c4ccc(O)c(O)c4)c(C(C)=O)c3c(=O)o2)ccc1O [METHYLINOSCAVIN C] |
